Assay results taken from ChEMBL document CHEMBL3580552, “Antiplasmodial and Cytotoxic Triterpenoids from the Bark of the Cameroonian Medicinal Plant Entandrophragma congoënse” (J Nat Prod, 2015).

Key:
[1] = Selectivity index, ratio of IC50 for rat L6 cells to IC50 for erythrocytic stages of Plasmodium falciparum NF54; type: toxicity, cell-based; conditions: read-out: Ratio IC50
L6 = test: Cytotoxicity against rat L6 cells after 72 hrs by Alamar blue assay; type: cell-based; conditions: L6, 72 h
Plasmodium falciparum = test: Antiplasmodial activity against chloroquine-sensitive erythrocytic stage Plasmodium falciparum NF54 assessed as [3H]hypoxanthine incorporation after 48 to 72 hrs by Betaplate liquid scintillation counting; type: functional, organism-based

Structure (SMILES) | IC50 (Plasmodium falciparum) [µM] | selectivity ratio [1] | IC50 (L6; read-out: IC50) [µM] | IC50 (L6) [µM]
CC(C)=CC(=O)O[C@H]1CC[C@]2(C)[C@H]3CC[C@]45C[C@]4(CC[C@H]5[C@@H]4C[C@H]([C@@H]5O[C@@]5(C)CO)O[C@H]4O)[C@]3(C)[C@H](O)C[C@H]2C1(C)C | 1.3 | 6.8 | 8.6 | –
CC(=O)O[C@@H]1C[C@H]2C(C)(C)C(=O)C=C[C@]2(C)[C@H]2CC[C@]3(C)C(=CC[C@H]3[C@@H]3C[C@H]([C@@H]4OC4(C)C)OC3=O)[C@@]21C | 0.44 | 12.1 | 5.3 | –
CO[C@@H]1O[C@@H]([C@H](O)C(C)(O)CO)C[C@H]1[C@@H]1CC[C@]23C[C@]12CC[C@@H]1[C@@]2(C)CC[C@H](OC(=O)C=C(C)C)C(C)(C)[C@@H]2C[C@@H](O)[C@]13C (stereo partly drawn) | 1.3 | 9 | 11.9 | –
COc1cc([C@@H]2c3cc4c(cc3[C@H](O)[C@H]3COC(=O)[C@H]23)OCO4)cc(OC)c1OC [PODOFILOX] | – | – | – | 0.012
CC(C)(O)[C@H](O)[C@H]1C[C@@H]([C@@H]2CC=C3[C@]4(C)[C@H](O)C[C@H]5C(C)(C)C(=O)C=C[C@]5(C)[C@H]4CC[C@]32C)C(=O)O1 | 1.3 | 25.2 | 32.3 | –
CC(=O)O[C@@H]1C[C@H]2C(C)(C)C(=O)C=C[C@]2(C)[C@H]2CC[C@]3(C)C(=CC[C@H]3[C@@H]3C[C@H]([C@H](O)C(C)(C)O)OC3=O)[C@@]21C | 0.67 | 105 | 70.6 | –

The next lines start with results.

IC50 (Plasmodium falciparum) [µM] | Structure (SMILES) | selectivity ratio [1] | IC50 (L6; read-out: IC50) [µM] | IC50 (L6) [µM]
19.3 | C=C(C)[C@@H]1CC=C2[C@H](CC[C@@]3(C)[C@H]([C@@H](C)CC(O)C(O)C(C)(C)O)CC[C@]23C)[C@@]1(C)CCC(=O)O (stereo partly drawn) | 2.9 | 56.1 | –
2 | CC(=O)O[C@@H]1C[C@H]2C(C)(C)[C@H](O)CC[C@]2(C)[C@H]2CC[C@]3(C)C(=CC[C@H]3[C@@H]3C[C@H]([C@H](O)C(C)(C)O)OC3=O)[C@@]21C | 21 | 42.4 | –
0.87 | CC(=O)O[C@@H]1CC[C@]2(C)[C@H]3CC[C@]4(C)C(=CC[C@H]4[C@@H]4C[C@H]([C@H](O)C(C)(C)O)OC4=O)[C@]3(C)[C@H](OC(C)=O)C[C@H]2C1(C)C | 12.7 | 11 | –
1.4 | CC(C)=CC(=O)O[C@H]1CC[C@]2(C)[C@H]3CC[C@]45C[C@]4(CC[C@H]5[C@@H]4C[C@H]([C@H](O)C(C)(C)O)O[C@H]4O)[C@]3(C)[C@H](O)C[C@H]2C1(C)C | 4.4 | 6.5 | –
